Laboratory results from PubChem BioAssay (NCI).
Where “and” joins values, the source holds several entries; their conditions need not be identical. Equal entries are not always repeated.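 Compound exposure: 48 hours, 5 concentrations, 96-well plates. GI50 is the concentration that inhibits growth by half. TGI: concentration producing complete growth inhibition.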

How the values were obtained:
Test in all cases: NCI-60 cell line screen, 48 h
TK-10 renal = system: TK-10 renal
DLD-1 colon = system: DLD-1 colon
XF 498 CNS = system: XF 498 CNS
HOP-18 NSCLC = system: HOP-18 NSCLC
M19-MEL melanoma = system: M19-MEL melanoma
SNB-78 CNS = system: SNB-78 CNS
KM20L2 colon = system: KM20L2 colon
DMS 273 small cell lung = system: DMS 273 small cell lung
LXFL 529 NSCLC = system: LXFL 529 NSCLC
RXF-631 renal = system: RXF-631 renal
DMS 114 small cell lung = system: DMS 114 small cell lung

## NC(=O)NC(=O)c1cccc(NC(=O)CCl)c1
TK-10 renal
  TGI: 6.76 µM

## N#CCC(=O)Nc1ccccc1O
DLD-1 colon
  TGI: > 100 µM
XF 498 CNS
  TGI: > 100 µM
HOP-18 NSCLC
  TGI: > 100 µM
M19-MEL melanoma
  TGI: > 100 µM
SNB-78 CNS
  TGI: > 100 µM
KM20L2 colon
  TGI: > 100 µM
DMS 273 small cell lung
  TGI: > 100 µM
LXFL 529 NSCLC
  TGI: > 100 µM
TK-10 renal
  TGI: > 100 µM
RXF-631 renal
  TGI: > 100 µM

## CN1C(=O)N(c2nc3ccccc3[nH]2)C(C)(C)C1=O
DLD-1 colon
  TGI: > 100 µM
XF 498 CNS
  TGI: > 100 µM
HOP-18 NSCLC
  TGI: > 100 µM
M19-MEL melanoma
  TGI: > 100 µM
SNB-78 CNS
  TGI: > 100 µM
KM20L2 colon
  TGI: > 100 µM
DMS 273 small cell lung
  TGI: > 100 µM
DMS 114 small cell lung
  TGI: > 100 µM
LXFL 529 NSCLC
  TGI: > 100 µM

## CC(C)CC1NC(=O)CCC(NC(=O)C(Cc2ccc(O)cc2)NC(=O)OCc2ccccc2)C(=O)NC(Cc2ccccc2)C(=O)NC(Cc2ccccc2)NC1=O (stereo not drawn)
TK-10 renal
  TGI: > 100 µM

## CC1(C)CCC[C@@]2(C)C1CC[C@@]1(CO1)[C@@H]2/C=C\C(C=O)CC=O (stereo partly drawn)
TK-10 renal
  TGI: > 100 µM

## O=Cc1ccc(-c2ccc(S(=O)(=O)O)cc2)o1
TK-10 renal
  TGI: > 100 µM

## COC(=O)C(C#N)C1NC(=O)c2ccccc21 (stereo not drawn)
DLD-1 colon
  TGI: > 100 µM
HOP-18 NSCLC
  TGI: > 100 µM
M19-MEL melanoma
  TGI: > 100 µM
SNB-78 CNS
  TGI: > 100 µM
KM20L2 colon
  TGI: > 100 µM
DMS 273 small cell lung
  TGI: > 100 µM
DMS 114 small cell lung
  TGI: > 100 µM
TK-10 renal
  TGI: > 100 µM
RXF-631 renal
  TGI: > 100 µM

## CC(C)=CCOc1ccc(-c2coc3cc4c(c(O)c3c2=O)C=CC(C)(C)O4)cc1
DLD-1 colon
  TGI: > 100 µM
XF 498 CNS
  TGI: > 100 µM
M19-MEL melanoma
  TGI: > 100 µM
SNB-78 CNS
  TGI: > 100 µM
KM20L2 colon
  TGI: > 100 µM
DMS 114 small cell lung
  TGI: > 100 µM
LXFL 529 NSCLC
  TGI: > 100 µM
TK-10 renal
  TGI: > 100 µM

## C[C@]12CC[C@H](O)CC1=CC[C@@H]1[C@@H]2CC[C@]2(C)NC(=O)/C(=C\c3ccccc3)C[C@@H]12
TK-10 renal
  TGI: 83.2 µM

## CN1N=C(c2ccccc2)c2cc(Cl)ccc2N=C1N/N=C/c1ccc(N(C)C)cc1
TK-10 renal
  TGI: > 100 µM

## Cc1nn(C(=O)c2ccc(Cl)cc2)c2c1C(c1ccc(Cl)cc1)SC(N)=N2 (stereo not drawn)
TK-10 renal
  TGI: > 10 µM

## O=C1c2c(O)cccc2Cc2cc(CO)cc(O)c21
TK-10 renal
  TGI: 14.9 µM

## COc1ccc(NC(/C(C(=O)C(=O)/C=C(\O)c2ccccc2)=C(\O)c2ccccc2)c2ccc(OC)cc2)cc1 (stereo not drawn)
TK-10 renal
  TGI: > 100 µM

## COc1ccc2[nH]c3c(O)c(-c4c(C)cc5c([nH]c6ccc(OC)cc65)c4O)c(C)cc3c2c1
TK-10 renal
  TGI: 8.19 µM

## CCOC(=O)c1csc(-c2cn(C)c3c2C(=O)C(OC)=CC3=O)n1
TK-10 renal
  TGI: > 100 µM

## CC(=O)OC(C)c1cc2c(s1)C(=O)c1ccsc1C2=O (stereo not drawn)
TK-10 renal
  TGI: 2.49 µM

## CCOC(=O)C1=NNC(C(=O)c2ccccc2)C1c1ccccc1 (stereo not drawn)
TK-10 renal
  TGI: 6.42 µM

## CC1=NNC(=O)C1C1C=C(c2c[nH]c3ccccc23)OC1=O (stereo not drawn)
TK-10 renal
  TGI: > 100 µM

## O=C1NC(N2CCCCC2)=N/C1=C\c1ccco1
TK-10 renal
  TGI: > 100 µM

## c1cc2c3ccsc3c3sccc3c2s1
TK-10 renal
  TGI: > 100 µM

## COc1ccc(C2=NN(C(=O)c3ccc(Cl)cc3)C(O)(c3cc(F)c(Cl)cc3Cl)C2)cc1 (stereo not drawn)
TK-10 renal
  TGI: > 100 µM

## COc1ccc(NC(=O)NNS(=O)(=O)c2ccc(C)cc2)cc1
TK-10 renal
  TGI: > 100 µM

## CCOC(=O)/C(=C\c1c(C)[nH]c2ccccc12)P(=O)(OCC)OCC
TK-10 renal
  TGI: > 100 µM

## Oc1cccc2ccc(Br)nc12
TK-10 renal
  TGI: > 100 µM

## Cc1cc(C)c(C(=O)C(C)C(c2ccccc2)c2ccc(Cl)cc2)c(C)c1 (stereo not drawn)
DLD-1 colon
  TGI: > 100 µM
XF 498 CNS
  TGI: > 100 µM
HOP-18 NSCLC
  TGI: > 100 µM
M19-MEL melanoma
  TGI: > 100 µM
KM20L2 colon
  GI50: > 100 µM and 47.2 µM
  TGI: > 100 µM
DMS 114 small cell lung
  TGI: > 100 µM
LXFL 529 NSCLC
  TGI: > 100 µM
TK-10 renal
  TGI: > 100 µM
RXF-631 renal
  TGI: > 100 µM

## C1=Cc2cccc3occ(c23)C=C1
TK-10 renal
  TGI: > 100 µM

## CC(O)C1OC(n2ccc(=O)[nH]c2=O)CC1n1cncn1 (stereo not drawn)
DLD-1 colon
  TGI: > 100 µM
XF 498 CNS
  TGI: > 100 µM
M19-MEL melanoma
  TGI: > 100 µM
KM20L2 colon
  TGI: > 100 µM
DMS 273 small cell lung
  TGI: > 100 µM
DMS 114 small cell lung
  TGI: > 100 µM
LXFL 529 NSCLC
  TGI: > 100 µM
TK-10 renal
  TGI: > 100 µM

## O=C(NCc1ccccc1)C1C(=O)C(=O)N(Cc2ccccc2)C1=O (stereo not drawn)
DLD-1 colon
  TGI: > 100 µM
HOP-18 NSCLC
  TGI: > 100 µM
M19-MEL melanoma
  TGI: > 100 µM
SNB-78 CNS
  TGI: > 100 µM
KM20L2 colon
  TGI: > 100 µM
DMS 273 small cell lung
  TGI: > 100 µM
LXFL 529 NSCLC
  TGI: > 100 µM
TK-10 renal
  TGI: > 100 µM
RXF-631 renal
  TGI: > 100 µM

## Cc1ccc2c(c1)CC1(C2)Cc2ccc(C)cc2C1=O (stereo not drawn)
TK-10 renal
  TGI: > 100 µM

## C/C(=N/N)c1sc(-c2nc(C)c(/C(C)=N\N)s2)nc1C
DLD-1 colon
  TGI: > 100 µM
XF 498 CNS
  TGI: > 100 µM
HOP-18 NSCLC
  TGI: > 100 µM
M19-MEL melanoma
  TGI: > 100 µM
SNB-78 CNS
  TGI: > 100 µM
KM20L2 colon
  TGI: > 100 µM
DMS 273 small cell lung
  TGI: > 58.8 µM
DMS 114 small cell lung
  TGI: > 63.8 µM
LXFL 529 NSCLC
  TGI: > 100 µM
TK-10 renal
  TGI: > 100 µM

## CC(C)(C)NC(=S)N/N=C/c1ccccn1
TK-10 renal
  TGI: > 100 µM

## CC(C)(C)OC(=O)C1/C(=C/CBr)CN1C(=O)OC(C)(C)C (stereo not drawn)
TK-10 renal
  TGI: 31.3 µM

## Oc1ccc(/C=N/c2nccs2)c(O)c1
TK-10 renal
  TGI: > 100 µM

## Cc1ccc(O)c(C2=NNC(c3cccc(Cl)c3)C2)c1 (stereo not drawn)
TK-10 renal
  TGI: > 100 µM

## C/C(=C\CC/C=C(\C)CC/C=C(\C)CCC1SC1(C)C)CC/C=C(\C)CCC1OC1(C)C (stereo not drawn)
DLD-1 colon
  TGI: > 100 µM
XF 498 CNS
  TGI: > 100 µM
HOP-18 NSCLC
  TGI: > 100 µM
M19-MEL melanoma
  TGI: > 100 µM
KM20L2 colon
  TGI: > 100 µM
DMS 273 small cell lung
  TGI: > 100 µM
DMS 114 small cell lung
  TGI: > 100 µM
LXFL 529 NSCLC
  TGI: > 100 µM
TK-10 renal
  TGI: > 100 µM

## N#CC(C#N)=Cn1c(=S)[nH]c2ccc([N+](=O)[O-])cc21
TK-10 renal
  TGI: > 100 µM

## COc1ccc(/C=C/c2nc(=S)[nH][nH]2)cc1OC
DLD-1 colon
  TGI: > 100 µM
XF 498 CNS
  TGI: > 100 µM
M19-MEL melanoma
  TGI: > 100 µM
SNB-78 CNS
  TGI: > 100 µM
KM20L2 colon
  TGI: > 100 µM
DMS 273 small cell lung
  TGI: > 100 µM
DMS 114 small cell lung
  TGI: > 100 µM
LXFL 529 NSCLC
  TGI: > 100 µM
TK-10 renal
  TGI: > 100 µM
